In US10307413B2, “Tetrahydro- and dihydro-isoquinoline PRMT5 inhibitors and uses thereof” (Epizyme, Inc., priority 2013, dated 2019):
Read-outs that look alike come from different tables or passages of the source.

Experiments:
[1] = system: symmetric di-methyl arginine in Z-138 cells; assay: Z-138 Methylation Assay (In Cell Western for symmetric di-methyl arginine and DNA content); format: cell-based; conditions: Homo sapiens, read-out: ICW EC50
In short: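 Z-138 cells (50,000 cells/mL) treated with compound 96 h at 37 °C, then fixed and stained for symmetric di-methyl arginine (800 nm) with DRAQ5 DNA counterstain (700 nm) on Licor Odyssey.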

Z-138 cell line = assay: Z-138 Proliferation Assay (Cell Titer Glo, 5 days); format: cell-based; conditions: Homo sapiens, 120 h, Z-138 cells, 5 days, read-out: Proliferation EC50
In short: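 Z-138 cells exposed 5 days at 37 °C, 5% CO2 to nine-point 3-fold dilutions (final top 20 μM, 0.2% DMSO), in triplicate. Viability read as ATP by CellTiter-Glo luminescence; IC50 from 4-parameter fit of normalized dose-response curves.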

PRMT5/MEP50 = PRMT5/MEP50 (Homo sapiens (Human), UniProt O14744); assay: PRMT5 Biochemical Assay (PRMT5/MEP50 enzyme assay on peptide substrate, 3H-SAM Flashplate)
In short: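 Radiometric methylation of a biotin-tagged H4(1-15) peptide by human PRMT5/MEP50 from baculovirus/Sf9, with ³H-SAM incorporation read on streptavidin Flashplates. Buffer: Bicine pH 7.6, TCEP, BSG, Tween20; compound preincubated 30 min at 25 °C; stopped with 600 µM final unlabeled SAM. DMSO and SAH controls; IC50 from fitted % inhibition.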

PRMT5/MEP50, sequence (O14744 other isoform, or with tags, fused parts or gaps): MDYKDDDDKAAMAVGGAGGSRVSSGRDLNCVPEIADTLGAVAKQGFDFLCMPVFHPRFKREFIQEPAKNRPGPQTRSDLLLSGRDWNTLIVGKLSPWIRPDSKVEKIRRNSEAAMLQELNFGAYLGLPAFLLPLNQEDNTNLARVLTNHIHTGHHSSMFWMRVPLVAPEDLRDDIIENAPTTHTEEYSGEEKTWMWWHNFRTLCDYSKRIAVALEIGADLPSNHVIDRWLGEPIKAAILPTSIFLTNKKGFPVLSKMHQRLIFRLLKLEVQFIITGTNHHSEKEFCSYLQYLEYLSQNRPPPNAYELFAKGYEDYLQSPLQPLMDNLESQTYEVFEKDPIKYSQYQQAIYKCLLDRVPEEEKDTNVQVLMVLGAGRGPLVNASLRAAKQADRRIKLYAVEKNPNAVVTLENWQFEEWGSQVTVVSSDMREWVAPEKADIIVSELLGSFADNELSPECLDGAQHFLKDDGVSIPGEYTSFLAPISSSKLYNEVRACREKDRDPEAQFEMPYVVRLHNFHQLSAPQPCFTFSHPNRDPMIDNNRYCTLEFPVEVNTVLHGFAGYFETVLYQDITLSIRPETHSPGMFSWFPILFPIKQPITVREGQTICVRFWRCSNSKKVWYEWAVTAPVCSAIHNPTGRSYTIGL
PRMT5/MEP50, sequence (Q9BQA1 other isoform, or with tags, fused parts or gaps partner): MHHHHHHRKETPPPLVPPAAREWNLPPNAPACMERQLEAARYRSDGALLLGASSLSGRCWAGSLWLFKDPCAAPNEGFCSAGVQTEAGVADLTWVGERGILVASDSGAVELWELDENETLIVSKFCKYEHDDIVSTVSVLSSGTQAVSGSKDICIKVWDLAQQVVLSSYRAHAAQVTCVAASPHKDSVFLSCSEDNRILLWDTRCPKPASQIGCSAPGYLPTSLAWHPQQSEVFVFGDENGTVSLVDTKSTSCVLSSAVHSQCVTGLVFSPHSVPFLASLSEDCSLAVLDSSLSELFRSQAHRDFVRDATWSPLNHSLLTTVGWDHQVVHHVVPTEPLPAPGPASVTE

Compound | EC50 ([1]; In Cell Western methylation) | EC50 (Z-138 cell line; Cell Titer Glo) | IC50 (PRMT5/MEP50; PRMT5 biochemical assay) | EC50 [1] | EC50 (Z-138 cell line) | IC50 (PRMT5/MEP50)
CC(C)CC(=O)N1CC(Nc2cc(C(=O)NC[C@H](O)CN3CCc4ccccc4C3)ncn2)C1 [Compound 417] | < 100 nM | < 100 nM | < 100 nM |  |  | 
CN(C)[C@H]1C[C@H](Nc2cc(C(=O)NC[C@H](O)CN3CCc4ccccc4C3)ncn2)C1 [Compound 376] |  |  |  | < 100 nM | 1000 to 10000 nM | < 100 nM
COc1nc(NC2CNC2)cc(C(=O)NC[C@H](O)CN2CCc3ccccc3C2)n1 [Compound 501] | 101 to 1000 nM | 1000 to 10000 nM | < 100 nM |  |  | 
CC(C)C(=O)N1CCC(Nc2cc(C(=O)NC[C@H](O)CN3CCc4ccccc4C3)ncn2)CC1 [Compound 408] | < 100 nM | < 100 nM | < 100 nM |  |  | 
CN1CCN(c2cc(C(=O)NC[C@H](O)CN3CCc4ccccc4C3)cc(NC3CCC3)n2)CC1 [Compound 413] | < 100 nM | < 100 nM | < 100 nM |  |  | 
CN(C)CCOc1ccc2cc(C(=O)NC[C@H](O)CN3CCc4ccccc4C3)ccc2c1 [Compound 370] |  |  |  | < 100 nM | 1000 to 10000 nM | < 100 nM
CS(=O)(=O)CCN1CCC(Nc2cc(C(=O)NC[C@H](O)CN3CCc4ccccc4C3)ncn2)CC1 [Compound 569] | < 100 nM | 101 to 1000 nM | < 100 nM |  |  | 
O=C(NC[C@H](O)CN1CCc2ccccc2C1)c1cnnc(NC2CCNC2)c1 (stereo partly drawn) [Compound 686] | > 1000 nM | > 5000 nM | < 100 nM |  |  | 
O=C(NC[C@H](O)CN1CCc2ccccc2C1)c1cc(NC2COC2)nc(N2CCOCC2)n1 [Compound 395] |  |  |  | < 100 nM | < 100 nM | < 100 nM
O=C(NC[C@H](O)CN1CCc2ccccc2C1)c1ccc2cc(OCCNCCO)ccc2c1 [Compound 368] |  |  |  | < 100 nM | 1000 to 10000 nM | < 100 nM
CC(=O)N1CCC(Nc2cc(C(=O)NC[C@H](O)CN3CCc4ccccc4C3)nc(N3CCOCC3)c2)CC1 [Compound 678] | < 100 nM | 101 to 1000 nM | < 100 nM |  |  | 
CC(C)c1nc(NC2COC2)cc(C(=O)NC[C@H](O)CN2CCc3ccccc3C2)n1 [Compound 449] | < 100 nM | 101 to 1000 nM | < 100 nM |  |  | 
COCCNc1cc(C(=O)NC[C@H](O)CN2CCc3ccccc3C2)ncn1 [Compound 352] |  |  |  | < 100 nM | 1000 to 10000 nM | 101 to 1000 nM
CC(=O)N1CCC(Nc2cc(C(=O)NC[C@H](O)CN3CCc4ccc(C)cc4C3)ncn2)CC1 [Compound 668] | < 100 nM | 1000 to 10000 nM | < 100 nM |  |  | 
CC(NC(=O)c1cc(NC2CCN(C(=O)C3CC3)CC2)ncn1)C(O)CN1CCc2ccccc2C1 (stereo not drawn) [Compound 552] | < 100 nM | 101 to 1000 nM | < 100 nM |  |  | 
COc1nc(NC2COC2)cc(C(=O)NC[C@H](O)CN2CCc3ccccc3C2)n1 [Compound 465] | < 100 nM | 101 to 1000 nM | < 100 nM |  |  | 
COCCO[C@H]1C[C@@H](Nc2cc(C(=O)NC[C@H](O)CN3CCc4ccccc4C3)ncn2)C1 [Compound 560] | < 100 nM | 101 to 1000 nM | < 100 nM |  |  | 
CN1CCCCC1CNc1cc(C(=O)NC[C@H](O)CN2CCc3ccccc3C2)ccn1 (stereo partly drawn) [Compound 411] | < 100 nM | 101 to 1000 nM | < 100 nM |  |  | 
CC(=O)N1CCC(Nc2cc(C(=O)NC[C@H](O)CN3CCc4ccccc4C3)nc(N3CCN(C)CC3)c2)CC1 [Compound 684] | < 100 nM | 101 to 1000 nM | < 100 nM |  |  | 
CC(C)CC(=O)N1CCC(Nc2cc(C(=O)NC[C@H](O)CN3CCc4ccccc4C3)ccn2)CC1 [Compound 471] | < 100 nM | < 100 nM | < 100 nM |  |  | 
CCN1CCN(c2nc(NC3COC3)cc(C(=O)NC[C@H](O)CN3CCc4ccccc4C3)n2)CC1 [Compound 477] | < 100 nM | < 100 nM | < 100 nM |  |  | 

Compound | EC50 ([1]; In Cell Western methylation) | EC50 (Z-138 cell line; Cell Titer Glo) | IC50 (PRMT5/MEP50; PRMT5 biochemical assay) | EC50 [1] | EC50 (Z-138 cell line) | IC50 (PRMT5/MEP50)
CO[C@H]1CC[C@H](Nc2cc(C(=O)NC[C@H](O)CN3CCc4ccccc4C3)ncn2)CC1 [Compound 586] | < 100 nM | < 100 nM | < 100 nM |  |  | 
CCc1nc(NC2COC2)cc(C(=O)NC[C@H](O)CN2CCc3ccccc3C2)n1 [Compound 452] | < 100 nM | 101 to 1000 nM | < 100 nM |  |  | 
CS(=O)(=O)CCNc1cc(C(=O)NC[C@H](O)CN2CCc3ccccc3C2)ncn1 [Compound 555] | 101 to 1000 nM | 1000 to 10000 nM | < 100 nM |  |  | 
CN(C)CCNc1cc(C(=O)NC[C@H](O)CN2CCc3ccccc3C2)ncn1 [Compound 353] |  |  |  | 101 to 1000 nM | 10000 to 50000 nM | < 100 nM
CC(C)(C)C(=O)N1CC(Nc2cc(C(=O)NC[C@H](O)CN3CCc4ccccc4C3)ncn2)C1 [Compound 424] | < 100 nM | 101 to 1000 nM | < 100 nM |  |  | 
O=C(NC[C@H](O)CN1CCc2ccccc2C1)c1cc(N[C@H]2C[C@H](N3CCOCC3)C2)ncn1 [Compound 558] | < 100 nM | 101 to 1000 nM | < 100 nM |  |  | 
CC(CNC(=O)c1cc(NC2COC2)ncn1)CN1CCc2ccccc2C1 (stereo not drawn) [Compound 657] | < 100 nM | > 5000 nM | < 100 nM |  |  | 
COCCN(CCOC)[C@H]1C[C@@H](Nc2cc(C(=O)NC[C@H](O)CN3CCc4ccccc4C3)ncn2)C1 [Compound 562] | < 100 nM | 101 to 1000 nM | < 100 nM |  |  | 
CN[C@H]1CC[C@H](Nc2cc(C(=O)NC[C@H](O)CN3CCc4ccccc4C3)ncn2)CC1 [Compound 661] | < 100 nM | 101 to 1000 nM | < 100 nM |  |  | 
CC(=O)N1CCC(Oc2cncc(C(=O)NC[C@H](O)CN3CCc4ccccc4C3)c2)CC1 [Compound 304] |  |  |  | < 100 nM | 1000 to 10000 nM | < 100 nM
CCS(=O)(=O)CCNCC1CN2C=NC(C(=O)NC[C@H](O)CN3CCc4ccccc4C3)=CC2=N1 (stereo partly drawn) [Compound 617] | > 1000 nM | > 5000 nM | 101 to 1000 nM |  |  | 
CN(C)c1nc(NC2CNC2)cc(C(=O)NC[C@H](O)CN2CCc3ccccc3C2)n1 [Compound 529] | 101 to 1000 nM | 101 to 1000 nM | < 100 nM |  |  | 
CO[C@H]1C[C@H](Nc2cc(C(=O)NC[C@H](O)CN3CCc4ccccc4C3)ncn2)C1 [Compound 559] | < 100 nM | 101 to 1000 nM | < 100 nM |  |  | 
O=C(NC[C@H](O)CN1CCc2ccccc2C1)c1ccnc(NC2CN(C(=O)C3CCC3)C2)c1 [Compound 530] | < 100 nM | < 100 nM | < 100 nM |  |  | 
COCCN(CCOC)[C@H]1C[C@H](Nc2cc(C(=O)NC[C@H](O)CN3CCc4ccccc4C3)ncn2)C1 [Compound 561] | < 100 nM | 101 to 1000 nM | < 100 nM |  |  | 
Nc1cc(C(=O)NC[C@H](O)CN2CCc3ccccc3C2)ncn1 [Compound 429] | 101 to 1000 nM | 10000 to 50000 nM | 101 to 1000 nM |  |  | 
CO[C@H]1CC[C@@H](N(C)c2cc(C(=O)NC[C@H](O)CN3CCc4ccccc4C3)ncn2)CC1 [Compound 618] | < 100 nM | 1000 to 10000 nM | < 100 nM |  |  | 
CN1CC(Nc2ccnc(C(=O)NC[C@H](O)CN3CCc4ccccc4C3)c2)C1 [Compound 575] | < 100 nM | > 5000 nM | < 100 nM |  |  | 
CC(=O)N1CCC(Nc2cc(C(=O)NC[C@H](O)CN3CCc4ccccc4C3)nc(N3CCN(C(C)=O)CC3)c2)CC1 [Compound 679] | < 100 nM | 101 to 1000 nM | < 100 nM |  |  | 
CC1c2ccccc2CCN1C[C@@H](O)CNC(=O)c1cc(NC2COC2)ncn1 (stereo partly drawn) [Compound 573] | 101 to 1000 nM | > 5000 nM | 101 to 1000 nM |  |  | 
